Consider six compounds from patent publication US5750515A, “Cancer metastasis inhibitor” (Taiho Pharmaceutical Co., Ltd., priority 1995, dated 1998).

Data set [1] concerns genes considered to be related to cancer metastasis and infiltration. The settings on record: as reported in the background art; concentration dependent manner; cited from earlier work.
In data set [2] the test system is TMK-1 (human stomach cancer). The data set can be described thus: Experimental liver metastasis (TMK-1 human stomach cancer transplanted into the spleen of nude mice), increased life span. It counts as in vivo, human cells in SPF BALB/c-nu/nu male mice. As for the experimental part: (§1) The effect of cancer metastasis inhibition was measured using the compounds Re 80, Am 55S and Am 555S.
(§2) KM12L4 (human colon cancer), TMK-1 (human stomach cancer) and A549 (human lung cancer) were each transplanted into the spleen of SPF BALB/c-nu/nu male mice (7 week old) in an amount of 1×10^6 cells/mouse. This test was conducted using experimental liver metastasis models.
(§3) The test procedure followed the modified Morikawa et al method (Cancer Research, 48, 1943-1948, (1988)). That is, the in vitro cultured cells were collected using 0.25% trypsin--0.02% EDTA or 0.02% EDTA and were then washed with physiological phosphate buffer saline. After the number of the cells was counted, the cells were diluted to 10^6 cells/50 μl. Next, each mouse was incised at their left abdomen after being anesthetized with 30 mg/kg of Nembutal and then the spleen was exposed. With a 28 gauge needle attached syringe, 50 μl of the above-prepared suspension containing 1×10^6 cells/50 μl was injected into the spleen. After two minutes, two portions of blood vessels of the spleen were ligated using a Liga clip and the spleen was removed. The incision site was then closed using a kyapher suture. Each of the compounds Re 80, Am 55S and Am 555S, which is an active ingredient of the cancer metastasis inhibitor of the invention, was suspended in 5% ethanol/olive oil or in 0.5% carboxymethyl cellulose/0.5% Tween 80 (Registered Trademark, produced by Nacalai tesque Co.) and was orally administered to each mouse from next day of the transplantation. In each case, the administration was conducted for three terms, each term consisting of five consecutive administration days and two non-administration days. Evaluation was conducted using the increased life span (ILS) in comparison to the control solvent group as an evaluation index. The ILS of all-trans-retinoic acid (ATRA), known to have cancer metastasis inhibiting properties, was also measured with the same test procedure.

A further data set relates to LC-6 (human lung cancer). The data set can be described thus: Tumor growth inhibitory effect (LC-6 subcutaneous solid tumor in nude mice). It counts as in vivo, human cells in SPF BALB/c-nu/nu male mice. The settings on record: tumor weight at 3 weeks vs non-treated. The method, then:
(§4) Each of 4-1ST (human stomach cancer) and LC-6 (human lung cancer) cell lines grown subcutaneously as solid tumors in mice, were cut into rectangular pieces measuring 2 mm×2 mm×2 mm and were then transplanted subcutaneously into the right backs of SPF BALB/c-nu/nu male mice (7 week old) by use of a needle for transplantation. Using the equation shown below, the estimated volume of tumor was determined. When the estimated volume of tumor became 100-250 mm^3, the mice were allocated. To the grouped mice were administered various doses of Am 555S, 5-fluorouracil (5-FU) and Cisplatin (CDDP). […] More specifically, Am 555S was orally administered for three terms, each term consisting of five consecutive administration days and two non-administration days, 5-FU was administered intravenously through the tail vein for consecutive five days, and CDDP was administered once intravenously through the tail vein. After three weeks from the administration commencement, the mice were killed and the tumor growth inhibition rates were determined from the rate of tumor weights to that of the non-treated group, so as to determine the effect of growth inhibition of the tumor.

The nature of data set [3]: Toxicity test, oral, 3 weeks. The settings on record: consecutive 3 weeks, 6 mice. It counts as in vivo, SPF ICR male mice. As for the experimental part: SPF ICR male mice (5 week old) were used as divided into groups each consisting of 6 mice. To the group to be administered with the compound Re 80, the group to be administered with the compound Am 55S and the group to be administered with the compound Am 555S were orally administered 2 mg/kg of the compound Re 80 per day, 640 mg/kg of the compound Am 55S per day and 16 mg/kg of the compound Am 555S per day for consecutive 3 weeks, respectively.

In data set [4] the test system is 4-1ST (human stomach cancer) and LC-6 (human lung cancer). Description: Tumor growth inhibitory effect, overall (4-1ST and LC-6). It counts as in vivo, human cells in SPF BALB/c-nu/nu male mice. As for the experimental part: as §4
Data set [5] has as its system 4-1ST (human stomach cancer). Description: Tumor growth inhibitory effect (4-1ST subcutaneous solid tumor in nude mice). It counts as in vivo, human cells in SPF BALB/c-nu/nu male mice. The settings on record: tumor weight at 3 weeks vs non-treated. As for the experimental part: as §4
For data set [6], the system named is KM12L4 (human colon cancer). The data set can be described thus: Experimental liver metastasis (KM12L4 human colon cancer transplanted into the spleen of nude mice), increased life span. The class given is in vivo, human cells in SPF BALB/c-nu/nu male mice. The method, then:
as §1, §2, §3

Another data set concerns A549 (human lung cancer). The data set can be described thus: Experimental liver metastasis (A549 human lung cancer transplanted into the spleen of nude mice), increased life span. The class given is in vivo, human cells in SPF BALB/c-nu/nu male mice. As for the experimental part:
as §1, §2, §3

In data set [7] the test system is experimental liver metastasis models (KM12L4, TMK-1, A549). Description: Effect on the experimental liver metastasis, overall (KM12L4, TMK-1 and A549 models). The settings on record: for advantage over all-trans-retinoic acid (ATRA) in ILS / maximum ILS as compared with all-trans-retinoic acid (ATRA): comparison with ATRA, in words; for inhibition of cancer metastasis: conclusion in words; for survival time of the mouse: conclusion in words from Table 1; for maximum value of the ILS as compared with the control group: maximum over cell lines and doses of Table 1. It counts as in vivo, human cells in SPF BALB/c-nu/nu male mice. The method, then:
as §1, §2, §3

Where [8] appears, read: 2 mg/kg oral, 3 terms of 5 days on/2 off.
Where [9] appears, read: 8 mg/kg oral, 3 terms of 5 days on/2 off.

Structures are written as SMILES.

Consider `CC1=C(/C=C/C(C)=C/C=C/C(C)=C/C(=O)O)C(C)(C)CCC1` [ATRA, all-trans-retinoic acid, reference compound], for which the “expression of genes related to cancer metastasis and infiltration” value in data set [1] was “can prevent the expression of these genes to interdict metastasis and infiltration of cancer cells in concentration dependent manner”. For the same compound, the “Increased life span (ILS %)” value in data set [2] (TMK-1, 8 mg/kg, same test procedure, vs control solvent group) was determined as 22%.
Regarding `[NH2][Pt]([NH2])([Cl])[Cl]` [CDDP, Cisplatin, reference compound], in the data set with LC-6 (human lung cancer) (7 mg/kg i.v. (tail vein), once), the “Tumor Growth Inhibition Rate” value was found to be 52.3.
For the compound `C[Si](C)(C)c1cc(C(=O)Nc2ccc(C(=O)O)cc2)cc([Si](C)(C)C)c1` [Am 555S, 4-[3,5-bis(trimethylsilyl)phenylcarboxamide] benzoic acid], in [3] (16 mg/kg per day oral), the death result was “No death occurred”. For the same compound, the notable side effect entry in data set [3] (16 mg/kg per day oral) is given as “no notable side effect occurred”. The “tumor growth inhibition rates as compared with 5-FU and CDDP” value in data set [4] (comparison in words from Table 2) is on record as “extremely low tumor growth inhibition rates”. Besides, the “tumor growth inhibition activity” value in [4] (conclusion in words from Table 2) was “no tumor growth inhibition activity”. Also, the “Tumor Growth Inhibition Rate” value was 2.7 in data set [5] (setting [8]); -4.9 in data set [5] (4 mg/kg oral, 3 terms of 5 days on/2 off); 8.7 in data set [5] (setting [9]); 2.7 in the data set on LC-6 (human lung cancer) (setting [8]); 13.7 in the data set on LC-6 (human lung cancer) (setting [9]). Besides, the “Increased life span (ILS %)” value in [6] (KM12L4, 4 mg/kg oral, 3 terms of 5 days on/2 off, vs control solvent group) is on record as 5%; in data set [6] (KM12L4, 16 mg/kg oral, 3 terms of 5 days on/2 off, vs control solvent group), 22%; with A549 (human lung cancer) (A549, 4 mg/kg oral, 3 terms of 5 days on/2 off, vs control solvent group) it was 57%; with A549 (human lung cancer) (A549, 16 mg/kg oral, 3 terms of 5 days on/2 off, vs control solvent group), 30%; in data set [2] (TMK-1, 4 mg/kg oral, 3 terms of 5 days on/2 off, vs control solvent group) it was 59%; in data set [2] (TMK-1, 16 mg/kg oral, 3 terms of 5 days on/2 off, vs control solvent group), 71%. Also, the “advantage over all-trans-retinoic acid (ATRA) in ILS” value in data set [7] is given as “marked advantages”. Further, the “maximum ILS as compared with all-trans-retinoic acid (ATRA)” value in data set [7] was “higher”. In addition, the “inhibition of cancer metastasis” value in [7] is on record as “effective to inhibit cancer metastasis”. Besides, the “survival time of the mouse” value in [7] is given as “remarkably prolonged”. The “maximum value of the ILS as compared with the control group” value in data set [7] amounted to 71%.
Take `C[Si](C)(C)c1cc(NC(=O)c2ccc(C(=O)O)cc2)cc([Si](C)(C)C)c1` [Am 55S, 4-[3,5-bis(trimethylsilyl)phenylcarbamoyl] benzoic acid]: in [3] (640 mg/kg per day oral), the death result is “No death occurred”. Also, the notable side effect entry in data set [3] (640 mg/kg per day oral) was “no notable side effect occurred”. The “Increased life span (ILS %)” value in data set [6] (po, 100 mg/kg, 120 h) was determined as 14%; in data set [6] (po, 300 mg/kg, 120 h) it was 42%; with A549 (human lung cancer) (po, 100 mg/kg, 120 h) it was 37%; in the data set with A549 (human lung cancer) (po, 300 mg/kg, 120 h), 6%; in [2] (po, 100 mg/kg, 120 h), 39%; in data set [2] (po, 300 mg/kg, 120 h) it was 30%. The “maximum ILS as compared with all-trans-retinoic acid (ATRA)” value in [7] was “higher”. In [7], the “inhibition of cancer metastasis” value is “effective to inhibit cancer metastasis”. Further, the “survival time of the mouse” value in data set [7] is on record as “remarkably prolonged”. Besides, the “maximum value of the ILS as compared with the control group” value in [7] came out at 42%.
On to `CC1(C)CCC(C)(C)c2cc(C(=O)C=C(O)c3ccc(C(=O)O)cc3)c(O)cc21` [Re 80, 4-[1-hydroxy-3-oxo-3-(5,6,7,8-tetrahydro-5,5,8,8-tetramethyl-3-hydroxy-2-naphthalenyl)-1-propenyl] benzoic acid], for which, in data set [3] (2 mg/kg per day oral), the death result is reported as “No death occurred” and the notable side effect result is given as “no notable side effect occurred”. For the same compound, the “Increased life span (ILS %)” value in data set [6] (po, 0.5 mg/kg, 120 h) is on record as 23%. In addition, in data set [6] (po, 2 mg/kg, 120 h), the “Increased life span (ILS %)” value was 34%. Also, the “Increased life span (ILS %)” value with A549 (human lung cancer) (po, 0.5 mg/kg, 120 h) was 19%. In the data set with A549 (human lung cancer) (po, 2 mg/kg, 120 h), the “Increased life span (ILS %)” value amounted to 22%. Further, in [7], the “advantage over all-trans-retinoic acid (ATRA) in ILS” value was “marked advantages”, the “maximum ILS as compared with all-trans-retinoic acid (ATRA)” value is given as “higher”, the “inhibition of cancer metastasis” value is “effective to inhibit cancer metastasis” and the “survival time of the mouse” value was “remarkably prolonged”. In data set [7], the “maximum value of the ILS as compared with the control group” value is recorded as 50%. The “Increased life span (ILS %)” value in [2] (po, 0.5 mg/kg, 120 h) stood at 36%. Moreover, the “Increased life span (ILS %)” value in data set [2] (po, 2 mg/kg, 120 h) amounted to 50%.
On to `O=c1[nH]cc(F)c(=O)[nH]1` [5-FU, 5-fluorouracil, reference compound], for which, in [5] (19 mg/kg i.v. (tail vein), consecutive five days), the “Tumor Growth Inhibition Rate” value was 50.9.
